# In paper PMC9437035, “Decoding the olfactory map through targeted transcriptomics links murine olfactory receptors to glomeruli” (Nature Communications, 2022):
# Key:
# [1] = target: T1, Olfr1377 (Mus musculus, UniProt B2RQ46); assay: CRE-luciferase reporter assay in Hana3A cells; type: cell-based; set-up: expressed from plasmid in Hana3A cells with RTP1S and M3R
# T1 sequence (B2RQ46 1-307): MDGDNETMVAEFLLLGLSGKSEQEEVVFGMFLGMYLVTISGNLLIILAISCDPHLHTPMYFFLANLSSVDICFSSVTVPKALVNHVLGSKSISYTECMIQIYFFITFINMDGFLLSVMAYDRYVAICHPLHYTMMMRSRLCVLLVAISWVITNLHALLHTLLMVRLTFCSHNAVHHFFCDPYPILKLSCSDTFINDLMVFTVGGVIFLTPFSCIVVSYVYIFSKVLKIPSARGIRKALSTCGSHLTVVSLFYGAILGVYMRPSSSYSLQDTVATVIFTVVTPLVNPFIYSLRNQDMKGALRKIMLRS
# [2] = target: T1, Olfr1377; assay: in vivo two-photon GCaMP6s imaging of the receptor-tagged glomerulus; set-up: native receptor in mKate2-labelled olfactory sensory neurons (IRES-mKate2 after the CDS, receptor unaltered); conditions: agonist; estimated delivered odorant concentration (olfactometer), anesthetized mice
# [3] = target: T1, Olfr1377; assay: as above; set-up: native receptor in mKate2-labelled olfactory sensory neurons (IRES-mKate2 after the CDS, receptor unaltered); conditions: agonist; inhaled odorant on the order of 10^0 nM, anesthetized mice
# [4] = target: T2, Olfr881 (Mus musculus, UniProt Q8VF63); assay: in vivo two-photon GCaMP6s imaging of the receptor-tagged glomerulus; pS6-IP RNA-Seq; conditions: agonist; inhaled odorant, anesthetized mice (imaging)
# T2 construct: gene Or8b35; native receptor in mKate2-labelled olfactory sensory neurons (IRES-mKate2 after the CDS, receptor unaltered)
# T2 sequence (Q8VF63 1-314): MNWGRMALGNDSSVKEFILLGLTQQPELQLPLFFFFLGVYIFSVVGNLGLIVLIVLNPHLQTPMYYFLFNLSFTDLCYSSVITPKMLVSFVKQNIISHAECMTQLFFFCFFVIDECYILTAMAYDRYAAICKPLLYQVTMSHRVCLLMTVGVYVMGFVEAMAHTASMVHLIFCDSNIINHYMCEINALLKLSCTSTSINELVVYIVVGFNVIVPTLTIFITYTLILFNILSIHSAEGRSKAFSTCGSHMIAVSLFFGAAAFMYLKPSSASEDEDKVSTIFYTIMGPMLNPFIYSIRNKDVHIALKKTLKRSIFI
Structure (SMILES),EC50 [1] [µM],glomerular response to odorant [3],also measured
CC(=O)c1ccccc1O [2′-hydroxyacetophenone],300,–,–
CC(=O)C=C(C)C [4-methyl-3-penten-2-one],–,"Olfr1377 showed strong responses to p-anisaldehyde, acetophenone, and the aliphatic ketone 4-methyl-3-penten-2-one",–
COc1ccc(C=O)cc1 [p-anisaldehyde],–,"Olfr1377 showed strong responses to p-anisaldehyde, acetophenone, and the aliphatic ketone 4-methyl-3-penten-2-one",–

# Second part, led by results:
EC50 [1] [µM],Structure (SMILES),glomerular response to odorant [3],also measured
0.008,COc1ccc(C(C)=O)cc1 [4-methoxyacetophenone],–,in vivo response threshold [2]: ~ 10^−13 M
1,CC(=O)c1ccc(C)cc1 [4-methylacetophenone],–,in vivo two-photon GCaMP6s imaging of the receptor-tagged glomerulus; pS6-IP RNA [4]: both Olfr1377 and Olfr881 exhibited robust responses to low concentrations of 4-methylacetophenone
10.1,CC(=O)c1ccccc1 [acetophenone],–,–
